Source: EP4682141A1, “TRICYCLIC COMPOUND” (ONO Pharmaceutical Co., Ltd., priority 2023, dated 2024)

Columns and labels:
[1] = tested on: Alport syndrome model mice; experiment: in vivo drug efficacy in Alport syndrome model mice; set-up: species or system COL4A5 homozygote knockout mice; conditions: 16 weeks after the start of administration
Procedure: The in vivo drug efficacy of the present compound on Alport syndrome was evaluated using COL4A5 (causative gene of Alport syndrome) knockout mice.
Male wild-type mice and female COL4A5 hetero knockout mice were naturally crossed to obtain offspring. Genotypes of the offspring were confirmed and male COL4A5 homozygote knockout mice were obtained.
The obtained animals were fed ad libitum with CE-2 (CLEA Japan), and watered ad libitum.
The mice were divided into groups using a statistical analysis system EXSUS10.0 so that the body weight and the urine albumin/urine creatinine value at the time of 6 weeks of age were almost uniform in each group.
The test substance and water for injection (Otsuka Pharmaceutical) as a vehicle were orally administered at 10 mL/kg once a day for 17 weeks.
The Control-3 group was orally administered water for injection at 10 mL/kg once a day for 17 weeks. In the Control-4 group, water for injection and an administration solution of irbesartan which is a renin angiotensin system inhibitor were mixed in equal amounts at 5 mL/kg each, and orally administered once a day for 17 weeks.
The administration dose is described in Table 11.
Blood collection was performed by cutting the tail vein of the mice a little with a razor and using a hematocrit capillary. Blood was centrifuged to obtain plasma. Urine was collected for about 16 hours in a metabolic cage for mouse under conditions in which a solid feed and water can be freely taken. The obtained urine sample was centrifuged, and the supernatant was subjected to measurement. Urine albumin (U-ALB) and urine creatinine (U-CRE) concentrations were measured by an automatic analyzer Hitachi 7180 (Hitachi High-Tech), and the creatinine concentration in plasma was measured using LabAssay Creatinine (Fujifilm Wako Shibayagi).

[2] = tested on: diabetic renal disease model rat; experiment: in vivo drug efficacy in diabetic renal disease model rat (single kidney removal, saline); set-up: species or system SDT.Cg-Leprfa/JttJcl (SDT-fatty rat); conditions: 8 weeks after the start of administration
Procedure: A diabetic renal disease model was created by extracting the unilateral kidneys of male SDT.Cg-Leprfa/JttJcl (SDT-fatty/Jcl, CLEA Japan) rats, a type 2 diabetes model, and then giving saline. The in vivo drug efficacy of the present compound on diabetic renal disease was evaluated in this model.
Male SDT.Cg-Leprfa/JttJcl (SDT-fatty rat) aged 4 weeks was purchased from CLEA Japan, and subjected to experiments. The animals were fed ad libitum with Purina5008 (Japan SLC) from the time of arrival, and watered ad libitum. Water was given from the arrival and until 1 week from single kidney removal, and a 0.2 w/v% NaCl solution was given 1 week after single kidney removal.
After acclimation breeding, the body weight was measured, and buprenorphine was subcutaneously administered at a dose of 0.01 mg/kg under inhalation anesthesia with isoflurane (Mayran). After removing hair from the right abdomen of the rat, the right abdomen was disinfected with ethanol and isodine for disinfection and incised to expose the right kidney. The renal artery and vein was ligated with a suture to stop the blood flow, the right kidney was totally removed, and the incision was sutured. The following day, analgesic buprenorphine was administered subcutaneously at a dose of 0.01 mg/kg.
Grouping was performed 3 weeks after single kidney removal. The mice were divided into groups so that the average of the above parameters was almost equal between the groups on the basis of body weight, serum urea nitrogen (BUN), serum creatinine (S-CRE), serum total cholesterol (T-CHO), blood glucose level (GLU), neutral fat (TG), urinary protein (U-TP), urinary albumin (U-ALB), and creatinine clearance (CCr).
All of the compounds of Examples 25-7, 10, 11 and 12 were orally administered once a day for 8 weeks in combination with losartan (30 mg/kg), a renin angiotensin system inhibitor, and canagliflozin (10 mg/kg), a glucose co-transporter inhibitor. The compounds of Examples 25-7, 10, 11 and 12, and losartan were each dissolved in water for injection (Otsuka Pharmaceutical), and canagliflozin was suspended in a 0.5% methyl cellulose solution (Fujifilm Wako Pure Chemical Corporation) to prepare an administration solution. In the Control-1 group, water for injection which is a vehicle of losartan or the compound of Examples 25-7, 10, 11 or 12 was orally administered at 5 mL/kg, and a 0.5% methylcellulose solution which is a vehicle of canagliflozin was orally administered at 2.5 mL/kg once a day for 8 weeks. In the Control-2 group, losartan (30 mg/kg) dissolved in water for injection was orally administered at an administration volume of 2.5 mL/kg, canagliflozin (10 mg/kg) suspended in a 0.5% methyl cellulose solution was orally administered at an administration volume of 2.5 mL/kg, and water for injection which is a vehicle of the compounds of Examples 25-7, 10, 11 and 12 was orally administered at an administration volume of 2.5 mL/kg once a day for 8 weeks. The administration dose is described in Table 8.
Blood was collected by puncturing the tail vein of the rat with an injection needle. Blood was collected in a tube for serum separation (BD Microtainer) and centrifuged to obtain serum. Urine was collected for 24 hours in a metabolic cage for rat under conditions in which a solid feed and water can be freely taken. The obtained urine sample was centrifuged, and the supernatant was subjected to measurement. The concentrations of BUN, S-CRE, T-CHO, TG, U-ALB, U-TP, GLU and U-CRE were measured by an automatic analyzer Hitachi 7180 (Hitachi High-Tech).

diabetes model rat = experiment: inhibitory effect on the amount of albumin excreted in urine in diabetes model rat; format: in vivo, SDT Fatty rats; conditions: urine collected for 24 hours, urine albumin/urine creatinine ratio
Procedure: Male SDT Fatty rats aged 6 weeks (CLEA Japan) were purchased and preliminarily bred for 1 week or more. Experiments were performed at 8 to 16 weeks of age. The animals were fed ad libitum with solid feed CRF-1 (Oriental Yeast) and watered ad libitum.
Animals were housed in metabolic cages 2 days before test substance administration, and urine was collected for 24 hours. On the day before administration of the test substance, urine albumin and urine creatinine were measured, and grouping was performed by a stratification randomization method based on the urine albumin/urine creatinine ratio (ACR) and the average value of body weights for each group.
The compounds (test substances) of Examples 9-5, 10, 11, 12, 25-7 and 32, and water for injection (Otsuka Pharmaceutical) as a vehicle were orally administered once at 5 mL/kg. The administration dose is described in Table 3.
For evaluation of the amount of albumin excreted in urine of each animal, a urine albumin/urine creatinine ratio (ACR) was measured. After administration of the test substance, the animals were housed in metabolic cages, and urine was collected for 24 hours. Each concentration of urine albumin and urine creatinine was measured using an automatic analyzer 7180 (Hitachi High-Tech), and ACR was calculated by dividing the urine albumin concentration by the urine creatinine concentration.

Cc1c(C(=O)O)ccc2c1O[C@H]1C[C@@H](O)[C@H](/C=C/C[C@@](C)(O)CCCC(F)(F)F)[C@H]1CC2 [Example 12, (1R,2R,3aS,10aR)-2-hydroxy-5-methyl-1-[(1E,4S)-8,8,8-trifluoro-4-hydroxy-4-methyl-1-octen-1-yl]-2,3,3a,9,10,10a-hexahydro-1H-benzo[b]cyclopenta[f]oxepine-6-carboxylic acid] showed a Plasma creatinine mean ([1]; 1 mg/kg orally once a day for 17 weeks, concomitant drug Irbesartan (50 mg/kg)) of 0.709 mg/dL, a Plasma creatinine mean ([1]; 3 mg/kg orally once a day for 17 weeks, concomitant drug cell empty) of 0.722 mg/dL and a Serum creatinine mean ([2]; 0.01 mg/kg orally once a day for 8 weeks in combination with losartan (30 mg/kg) and canagliflozin (10 mg/kg)) of 0.51 mg/dL. The Serum creatinine mean ([2]; 0.03 mg/kg orally once a day for 8 weeks in combination with losartan (30 mg/kg) and canagliflozin (10 mg/kg)) was 0.45 mg/dL, the ACR mean (diabetes model rat; 0.01 mg/kg orally once) was 4602.3 µg/mg and the ACR mean (diabetes model rat; 0.03 mg/kg orally once) was 3887.3 µg/mg.

CC(C)(c1ccccc1)C(O)/C=C/[C@H]1CC[C@@H]2Oc3c(ccc(C(=O)O)c3F)CC[C@@H]21 (stereo partly drawn) [Example 25-7, (1R,3aS,10aR)-5-fluoro-1-[(1E,3ξ)-3-hydroxy-4-methyl-4-phenyl-1-penten-1-yl]-2,3,3a,9,10,10a-hexahydro-1H-benzo[b]cyclopenta[f]oxepine-6-carboxylic acid] was tested, and the Plasma creatinine mean ([1]; 0.1 mg/kg orally once a day for 17 weeks, single agent) was 0.758 mg/dL, the Plasma creatinine mean ([1]; 0.3 mg/kg orally once a day for 17 weeks, single agent) was 0.628 mg/dL and the Serum creatinine mean ([2]; 0.1 mg/kg orally once a day for 8 weeks in combination with losartan (30 mg/kg) and canagliflozin (10 mg/kg)) was 0.45 mg/dL. The ACR mean (diabetes model rat; 0.003 mg/kg orally once) was 3217.6 µg/mg and the ACR mean (diabetes model rat; 0.01 mg/kg orally once) was 2331.6 µg/mg.
